Laboratory results published in ChEMBL document CHEMBL3991601, “The target landscape of clinical kinase drugs” (Science, 2017).
Active and inactive are the calls of the source.

What was measured:
[1] = biological target: Tyrosine-protein kinase Fgr (Homo sapiens, UniProt P09769)
[2] = biological target: Dual specificity testis-specific protein kinase 1 (Homo sapiens, UniProt Q15569)
[3] = biological target: Hepatocyte growth factor receptor (Homo sapiens, UniProt P08581)
[4] = biological target: Serine/threonine-protein kinase 38 (Homo sapiens, UniProt Q15208)
[5] = biological target: Cyclin-dependent kinase 17 (Homo sapiens, UniProt Q00537)
Misshapen-like kinase 1 = Misshapen-like kinase 1 (Homo sapiens, UniProt Q8N4C8)
Sequence of Misshapen-like kinase 1 (Q8N4C8 whole entry): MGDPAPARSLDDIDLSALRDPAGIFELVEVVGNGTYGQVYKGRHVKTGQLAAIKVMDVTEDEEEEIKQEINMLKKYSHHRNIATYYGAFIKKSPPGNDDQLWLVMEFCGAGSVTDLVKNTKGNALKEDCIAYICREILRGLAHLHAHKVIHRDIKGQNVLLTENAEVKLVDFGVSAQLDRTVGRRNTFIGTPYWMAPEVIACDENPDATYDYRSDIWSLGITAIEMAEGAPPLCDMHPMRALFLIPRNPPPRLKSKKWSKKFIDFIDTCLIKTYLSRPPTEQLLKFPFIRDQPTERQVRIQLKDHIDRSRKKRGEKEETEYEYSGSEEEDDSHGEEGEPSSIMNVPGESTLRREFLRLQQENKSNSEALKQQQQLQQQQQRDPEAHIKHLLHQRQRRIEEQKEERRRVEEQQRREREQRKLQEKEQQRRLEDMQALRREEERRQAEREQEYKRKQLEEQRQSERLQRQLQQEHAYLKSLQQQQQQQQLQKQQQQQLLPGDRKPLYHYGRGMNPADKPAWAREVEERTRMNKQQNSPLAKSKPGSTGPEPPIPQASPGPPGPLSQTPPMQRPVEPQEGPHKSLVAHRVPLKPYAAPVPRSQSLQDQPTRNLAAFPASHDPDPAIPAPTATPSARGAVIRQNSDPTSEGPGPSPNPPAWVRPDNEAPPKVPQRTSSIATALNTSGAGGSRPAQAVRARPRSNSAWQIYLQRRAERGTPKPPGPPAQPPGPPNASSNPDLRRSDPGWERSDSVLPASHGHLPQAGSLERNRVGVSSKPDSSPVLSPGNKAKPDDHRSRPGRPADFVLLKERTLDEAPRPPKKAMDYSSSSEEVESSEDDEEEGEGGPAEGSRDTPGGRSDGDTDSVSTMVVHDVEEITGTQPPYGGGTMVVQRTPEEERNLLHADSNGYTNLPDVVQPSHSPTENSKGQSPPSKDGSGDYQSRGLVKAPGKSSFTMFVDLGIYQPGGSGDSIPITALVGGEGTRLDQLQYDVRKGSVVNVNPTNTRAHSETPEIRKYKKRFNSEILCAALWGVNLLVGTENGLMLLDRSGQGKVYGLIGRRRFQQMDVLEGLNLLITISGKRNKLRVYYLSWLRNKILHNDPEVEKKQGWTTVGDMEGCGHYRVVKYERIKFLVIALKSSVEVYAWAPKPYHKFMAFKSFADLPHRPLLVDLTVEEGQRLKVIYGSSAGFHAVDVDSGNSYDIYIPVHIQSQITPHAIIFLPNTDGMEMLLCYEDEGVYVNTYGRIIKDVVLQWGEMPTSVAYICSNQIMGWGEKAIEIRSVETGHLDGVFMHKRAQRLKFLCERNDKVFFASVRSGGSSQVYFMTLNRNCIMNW

[6] = biological target: Protein kinase C theta type (Homo sapiens, UniProt Q04759)
Sequence of Protein kinase C theta type (Q04759 whole entry): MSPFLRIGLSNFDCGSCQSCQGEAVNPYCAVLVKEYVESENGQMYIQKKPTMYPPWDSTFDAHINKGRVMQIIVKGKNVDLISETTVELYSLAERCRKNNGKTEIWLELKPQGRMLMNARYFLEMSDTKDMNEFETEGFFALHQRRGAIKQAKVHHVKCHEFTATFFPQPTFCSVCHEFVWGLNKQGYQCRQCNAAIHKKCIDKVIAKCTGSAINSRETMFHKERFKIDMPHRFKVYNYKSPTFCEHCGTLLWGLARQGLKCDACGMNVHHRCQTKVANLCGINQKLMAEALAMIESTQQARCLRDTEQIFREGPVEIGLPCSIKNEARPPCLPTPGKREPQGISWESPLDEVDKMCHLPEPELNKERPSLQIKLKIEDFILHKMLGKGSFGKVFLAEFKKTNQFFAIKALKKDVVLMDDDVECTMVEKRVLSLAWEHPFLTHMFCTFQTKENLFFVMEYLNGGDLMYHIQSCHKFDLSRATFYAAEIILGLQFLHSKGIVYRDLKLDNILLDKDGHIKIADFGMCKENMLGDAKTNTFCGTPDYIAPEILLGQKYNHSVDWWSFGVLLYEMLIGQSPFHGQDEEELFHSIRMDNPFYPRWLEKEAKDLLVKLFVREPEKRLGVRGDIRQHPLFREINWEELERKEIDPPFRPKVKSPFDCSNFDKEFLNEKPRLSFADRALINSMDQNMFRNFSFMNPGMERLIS

[7] = biological target: Serine/threonine-protein kinase ATR (Homo sapiens, UniProt Q13535)
Sequence of Serine/threonine-protein kinase ATR (Q13535 whole entry): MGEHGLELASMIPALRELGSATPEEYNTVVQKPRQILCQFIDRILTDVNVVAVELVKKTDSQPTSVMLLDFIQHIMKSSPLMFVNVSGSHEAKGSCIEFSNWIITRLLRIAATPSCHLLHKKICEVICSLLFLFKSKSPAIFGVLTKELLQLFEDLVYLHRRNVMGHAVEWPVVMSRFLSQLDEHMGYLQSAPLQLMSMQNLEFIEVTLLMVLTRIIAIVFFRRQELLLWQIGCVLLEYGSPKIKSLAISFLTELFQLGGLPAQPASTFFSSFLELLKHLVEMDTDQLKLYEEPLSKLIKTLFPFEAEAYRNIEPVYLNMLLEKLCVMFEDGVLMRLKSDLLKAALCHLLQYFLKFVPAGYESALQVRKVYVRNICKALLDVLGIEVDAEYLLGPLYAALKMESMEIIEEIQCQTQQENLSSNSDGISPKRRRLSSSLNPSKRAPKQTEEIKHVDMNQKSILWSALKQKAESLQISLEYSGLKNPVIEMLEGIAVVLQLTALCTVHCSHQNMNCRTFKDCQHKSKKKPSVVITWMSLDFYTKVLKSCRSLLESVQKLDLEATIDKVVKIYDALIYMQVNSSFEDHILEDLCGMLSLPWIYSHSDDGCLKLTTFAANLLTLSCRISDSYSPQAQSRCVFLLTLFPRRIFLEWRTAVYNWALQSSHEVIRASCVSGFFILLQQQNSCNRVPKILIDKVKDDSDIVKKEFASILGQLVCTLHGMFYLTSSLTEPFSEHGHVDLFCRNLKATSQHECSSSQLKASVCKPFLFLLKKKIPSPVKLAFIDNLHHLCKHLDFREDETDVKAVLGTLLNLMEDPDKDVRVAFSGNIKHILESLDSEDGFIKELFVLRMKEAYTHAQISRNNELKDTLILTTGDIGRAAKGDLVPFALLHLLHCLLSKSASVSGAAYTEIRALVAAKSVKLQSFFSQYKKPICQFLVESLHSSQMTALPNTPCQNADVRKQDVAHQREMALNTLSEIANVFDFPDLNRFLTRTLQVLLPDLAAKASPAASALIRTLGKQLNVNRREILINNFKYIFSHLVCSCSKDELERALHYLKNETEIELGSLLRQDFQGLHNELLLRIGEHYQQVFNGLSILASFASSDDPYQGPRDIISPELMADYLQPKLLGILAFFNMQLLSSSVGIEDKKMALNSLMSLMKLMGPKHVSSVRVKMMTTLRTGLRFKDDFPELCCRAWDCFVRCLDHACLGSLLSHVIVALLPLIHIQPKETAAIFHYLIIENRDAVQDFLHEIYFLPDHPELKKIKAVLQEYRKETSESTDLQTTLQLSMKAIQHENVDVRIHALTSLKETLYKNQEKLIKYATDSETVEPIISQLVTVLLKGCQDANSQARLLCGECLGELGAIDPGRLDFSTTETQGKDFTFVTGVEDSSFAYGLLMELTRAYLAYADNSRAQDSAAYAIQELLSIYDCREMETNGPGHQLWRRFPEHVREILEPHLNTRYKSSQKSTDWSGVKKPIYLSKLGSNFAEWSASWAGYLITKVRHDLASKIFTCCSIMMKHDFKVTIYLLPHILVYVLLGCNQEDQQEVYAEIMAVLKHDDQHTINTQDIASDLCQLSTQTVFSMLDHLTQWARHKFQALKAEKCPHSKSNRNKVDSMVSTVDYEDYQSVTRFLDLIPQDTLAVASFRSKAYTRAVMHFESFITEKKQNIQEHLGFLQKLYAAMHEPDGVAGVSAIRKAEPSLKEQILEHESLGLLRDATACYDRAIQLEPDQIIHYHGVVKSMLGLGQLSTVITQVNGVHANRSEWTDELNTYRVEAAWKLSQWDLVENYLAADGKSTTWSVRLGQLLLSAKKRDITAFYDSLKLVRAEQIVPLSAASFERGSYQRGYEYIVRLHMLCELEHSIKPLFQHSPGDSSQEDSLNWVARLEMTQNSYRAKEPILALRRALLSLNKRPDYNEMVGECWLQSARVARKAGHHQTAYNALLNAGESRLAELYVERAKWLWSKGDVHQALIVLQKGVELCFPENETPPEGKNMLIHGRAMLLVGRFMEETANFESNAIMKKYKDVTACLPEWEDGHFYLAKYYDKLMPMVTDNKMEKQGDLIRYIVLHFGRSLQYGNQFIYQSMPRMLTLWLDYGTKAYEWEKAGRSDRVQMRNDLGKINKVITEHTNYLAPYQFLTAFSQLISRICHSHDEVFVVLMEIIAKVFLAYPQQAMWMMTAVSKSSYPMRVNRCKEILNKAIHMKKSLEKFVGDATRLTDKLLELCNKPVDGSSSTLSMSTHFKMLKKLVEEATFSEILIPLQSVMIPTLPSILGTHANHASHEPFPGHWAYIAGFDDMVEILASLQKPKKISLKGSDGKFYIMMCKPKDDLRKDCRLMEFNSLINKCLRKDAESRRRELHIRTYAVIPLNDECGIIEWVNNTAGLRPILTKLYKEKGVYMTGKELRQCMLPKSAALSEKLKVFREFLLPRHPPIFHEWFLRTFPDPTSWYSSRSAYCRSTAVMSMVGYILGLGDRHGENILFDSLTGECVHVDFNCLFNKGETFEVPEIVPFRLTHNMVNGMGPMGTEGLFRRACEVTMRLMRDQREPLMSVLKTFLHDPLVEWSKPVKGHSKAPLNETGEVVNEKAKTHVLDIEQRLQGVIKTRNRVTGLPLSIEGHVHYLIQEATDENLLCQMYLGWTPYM

[8] = biological target: Serine/threonine-protein kinase 38-like (Homo sapiens, UniProt Q9Y2H1)
[9] = biological target: MAP kinase-activated protein kinase 3 (Homo sapiens, UniProt Q16644)
Sequence of MAP kinase-activated protein kinase 3 (Q16644 whole entry): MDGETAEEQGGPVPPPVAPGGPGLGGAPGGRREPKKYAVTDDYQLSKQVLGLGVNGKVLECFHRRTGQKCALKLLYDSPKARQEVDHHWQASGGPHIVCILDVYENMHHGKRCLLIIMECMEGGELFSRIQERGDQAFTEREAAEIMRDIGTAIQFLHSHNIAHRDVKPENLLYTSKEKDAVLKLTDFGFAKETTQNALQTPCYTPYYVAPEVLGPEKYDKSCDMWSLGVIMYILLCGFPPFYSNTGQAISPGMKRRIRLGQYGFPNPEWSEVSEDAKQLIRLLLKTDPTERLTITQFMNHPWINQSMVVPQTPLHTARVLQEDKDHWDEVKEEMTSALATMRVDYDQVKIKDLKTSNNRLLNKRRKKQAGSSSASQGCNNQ

[10] = biological target: T1, Tyrosine-protein kinase Mer (Homo sapiens, UniProt Q12866)
T1 sequence (Q12866 whole entry): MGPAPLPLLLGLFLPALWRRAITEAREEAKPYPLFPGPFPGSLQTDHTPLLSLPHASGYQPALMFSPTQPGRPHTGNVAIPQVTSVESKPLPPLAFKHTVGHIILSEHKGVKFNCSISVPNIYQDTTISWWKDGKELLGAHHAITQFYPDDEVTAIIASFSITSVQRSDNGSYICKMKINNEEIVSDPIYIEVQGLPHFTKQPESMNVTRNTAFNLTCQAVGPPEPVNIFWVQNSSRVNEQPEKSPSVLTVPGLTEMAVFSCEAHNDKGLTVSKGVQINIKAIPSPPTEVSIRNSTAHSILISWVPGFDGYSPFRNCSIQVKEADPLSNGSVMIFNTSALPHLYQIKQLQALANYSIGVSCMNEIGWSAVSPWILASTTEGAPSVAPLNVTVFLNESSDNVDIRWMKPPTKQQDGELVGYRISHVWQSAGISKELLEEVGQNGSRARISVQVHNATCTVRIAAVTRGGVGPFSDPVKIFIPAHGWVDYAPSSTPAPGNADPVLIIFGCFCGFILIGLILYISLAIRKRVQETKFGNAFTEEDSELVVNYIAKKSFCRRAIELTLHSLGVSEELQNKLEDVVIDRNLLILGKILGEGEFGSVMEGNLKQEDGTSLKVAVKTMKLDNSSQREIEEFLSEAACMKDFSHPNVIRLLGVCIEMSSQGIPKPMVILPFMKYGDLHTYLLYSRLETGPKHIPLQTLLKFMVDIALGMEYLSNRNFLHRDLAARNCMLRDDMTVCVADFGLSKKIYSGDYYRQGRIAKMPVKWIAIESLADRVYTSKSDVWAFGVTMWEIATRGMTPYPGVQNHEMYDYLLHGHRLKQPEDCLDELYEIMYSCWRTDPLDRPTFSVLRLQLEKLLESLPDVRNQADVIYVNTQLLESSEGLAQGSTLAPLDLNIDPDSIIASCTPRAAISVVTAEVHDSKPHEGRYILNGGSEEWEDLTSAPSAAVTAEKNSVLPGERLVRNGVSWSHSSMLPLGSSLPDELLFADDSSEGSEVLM

[11] = biological target: T2, Isoleucine--tRNA ligase, mitochondrial (Homo sapiens, UniProt Q9NSE4)
T2 sequence (Q9NSE4 whole entry): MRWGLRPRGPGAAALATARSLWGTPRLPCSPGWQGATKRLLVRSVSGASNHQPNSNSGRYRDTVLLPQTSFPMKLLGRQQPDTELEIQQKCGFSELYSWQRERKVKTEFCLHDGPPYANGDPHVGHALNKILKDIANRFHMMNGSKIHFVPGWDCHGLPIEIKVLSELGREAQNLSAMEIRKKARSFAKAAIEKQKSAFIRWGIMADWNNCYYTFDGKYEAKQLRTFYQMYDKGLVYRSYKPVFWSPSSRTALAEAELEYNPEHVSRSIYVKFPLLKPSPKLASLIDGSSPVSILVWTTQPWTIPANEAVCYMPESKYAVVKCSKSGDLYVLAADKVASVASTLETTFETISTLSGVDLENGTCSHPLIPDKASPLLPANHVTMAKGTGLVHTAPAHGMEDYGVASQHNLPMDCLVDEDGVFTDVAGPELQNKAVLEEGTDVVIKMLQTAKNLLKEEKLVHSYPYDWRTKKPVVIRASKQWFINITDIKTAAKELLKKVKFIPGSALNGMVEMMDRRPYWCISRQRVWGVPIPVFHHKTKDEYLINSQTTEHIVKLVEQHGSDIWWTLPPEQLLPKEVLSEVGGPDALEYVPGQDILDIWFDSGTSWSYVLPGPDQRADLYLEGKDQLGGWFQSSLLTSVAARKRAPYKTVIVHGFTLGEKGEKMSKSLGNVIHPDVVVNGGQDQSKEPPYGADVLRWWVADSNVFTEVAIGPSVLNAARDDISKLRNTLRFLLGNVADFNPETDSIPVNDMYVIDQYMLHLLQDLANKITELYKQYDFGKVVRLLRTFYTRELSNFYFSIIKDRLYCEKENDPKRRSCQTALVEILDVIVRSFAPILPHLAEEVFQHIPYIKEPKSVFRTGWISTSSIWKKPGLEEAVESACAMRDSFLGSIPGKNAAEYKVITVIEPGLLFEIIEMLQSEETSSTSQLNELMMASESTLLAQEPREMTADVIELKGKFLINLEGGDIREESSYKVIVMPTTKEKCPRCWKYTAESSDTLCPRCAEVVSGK
Further: in the data inactive means no Kd found up to 30 µM.

SMILES | Kd [1] | Kd [2] | Kd [3] | Kd [4] | Kd [5] | Kd (Misshapen-like kinase 1) | Kd [6] | Kd [7] | Kd [8] | Kd [9] | Kd [10] | Kd [11]
CNC(=O)c1ccc(C)c(-n2c(C)cc(OCc3ccc(F)cc3F)c(Br)c2=O)c1 [PH-797804] | > 30 µM (inactive) | > 30 µM (inactive) | > 30 µM (inactive) | > 30 µM (inactive) | > 30 µM (inactive) | > 30 µM (inactive) |  |  |  |  |  | 
COc1cc(OC)c(/C=C/S(=O)(=O)Cc2ccc(OC)c(NCC(=O)O)c2)c(OC)c1 [RIGOSERTIB] | > 30 µM (inactive) | > 30 µM (inactive) | 0.94 µM (active) | > 30 µM (inactive) | > 30 µM (inactive) |  | > 30 µM (inactive) | > 30 µM (inactive) |  |  |  | 
C=CC(=O)N1CCC(Oc2cc3c(Nc4ccc(Cl)c(Cl)c4F)ncnc3cc2OC)CC1 [POZIOTINIB] |  | > 30 µM (inactive) | 0.794 µM | > 30 µM (inactive) | > 30 µM (inactive) | > 30 µM (inactive) |  |  | > 30 µM (inactive) |  |  | 
Cc1ccc(-n2nc(C(C)(C)C)cc2NC(=O)NCc2cc(F)ccc2Oc2ccc3c(cnn3CCO)c2)cc1 [PEXMETINIB] |  | > 30 µM (inactive) | > 30 µM (inactive) | > 30 µM (inactive) | 0.402 µM (active) | > 30 µM (inactive) | > 30 µM (inactive) |  | > 30 µM (inactive) | > 30 µM (inactive) | 2.81 µM | > 30 µM (inactive)
CC[C@H](Nc1ncnc2[nH]cnc12)c1nc2cccc(F)c2c(=O)n1-c1ccccc1 [IDELALISIB] | > 30 µM (inactive) | > 30 µM (inactive) |  | > 30 µM (inactive) | > 30 µM (inactive) | > 30 µM (inactive) | > 30 µM (inactive) | > 30 µM (inactive) | > 30 µM (inactive) | > 30 µM (inactive) |  | 
CN1N=C(N)c2cn([C@@H]3O[C@H](COP(=O)(O)O)[C@@H](O)[C@H]3O)c3ncnc1c23 [TRICIRIBINE PHOSPHATE] | > 30 µM (inactive) |  | > 30 µM (inactive) |  |  |  | > 30 µM (inactive) |  |  |  |  | > 30 µM (inactive)
Cc1nc(N)sc1-c1ccnc(Nc2ccc(N3CCOCC3)cc2)n1 [CYC-116] | > 30 µM (inactive) |  |  |  | 0.007 µM (active) |  |  |  |  |  |  | > 30 µM (inactive)
Cc1c(F)cc(C(=O)NC2CC2)cc1-c1ccc(C(=O)NCC(C)(C)C)cn1 [LOSMAPIMOD] |  | > 30 µM (inactive) |  | > 30 µM (inactive) | > 30 µM (inactive) | > 30 µM (inactive) | > 30 µM (inactive) |  | > 30 µM (inactive) |  | > 30 µM (inactive) | 
O=C(Nc1ccc(-c2ccnc(Nc3ccc(N4CCOCC4)cc3)n2)cc1)C1CCCN1 (stereo unspecified) [XL-019] | > 30 µM (inactive) | > 30 µM (inactive) | > 30 µM (inactive) | > 30 µM (inactive) |  |  | > 30 µM (inactive) | > 30 µM (inactive) |  | > 30 µM (inactive) | > 30 µM (inactive) | 
C[C@@H]1CN(Cc2ccc(F)cc2)[C@@H](C)CN1C(=O)c1cc2c(C(=O)C(=O)N(C)C)cn(C)c2cc1Cl [TALMAPIMOD] |  | > 30 µM (inactive) | > 30 µM (inactive) | > 30 µM (inactive) | > 30 µM (inactive) |  | > 30 µM (inactive) | > 30 µM (inactive) | > 30 µM (inactive) | > 30 µM (inactive) |  | 
Cc1cc(-c2cc(O)ccc2Cl)cc2nnc(Nc3ccc(OCCN4CCCC4)cc3)nc12 | > 30 µM (inactive) | > 30 µM (inactive) | > 30 µM (inactive) |  | > 30 µM (inactive) |  | > 30 µM (inactive) | > 30 µM (inactive) | > 30 µM (inactive) | > 30 µM (inactive) |  | 
COc1cc(CCc2cc(NC(=O)c3ccc(N4C[C@@H](C)N[C@@H](C)C4)cc3)n[nH]2)cc(OC)c1 [AZD-4547] |  | > 30 µM (inactive) | > 30 µM (inactive) | > 30 µM (inactive) | > 30 µM (inactive) |  | > 30 µM (inactive) | > 30 µM (inactive) |  |  | > 30 µM (inactive) | 
Cc1cc([C@@H](C)Nc2ccccc2C(=O)O)c2nc(N3CCOCC3)cc(=O)n2c1 [AZD-6482] |  | > 30 µM (inactive) | > 30 µM (inactive) | > 30 µM (inactive) | > 30 µM (inactive) |  | > 30 µM (inactive) | > 30 µM (inactive) | > 30 µM (inactive) |  | > 30 µM (inactive) | 
